Data taken from the CheMixHub ionic liquid set.
± gives the uncertainty stated by the source.

Assay: xn = mol fraction of the nth substance listed

CCCC[n+]1ccn(C)c1.[Cl-] + CN(C)C=O
101 kPa
Conditions | electrical conductivity [S/m] | viscosity [mPa·s]
293.15 K, x2 = 0.9 | – | 3.4 ± 1.5
298.15 K, x1 = 0.0172 | – | 0.98 ± 0.11
298.15 K, x2 = 0.5541 | 0.322 ± 0.006 | 41.1 ± 6.3
298.15 K, x2 = 0.975 | 0.574 ± 0.011 | 0.96 ± 0.27
303.15 K, x2 = 0.5056 | – | 52.3 ± 2.6
303.15 K, x2 = 0.6034 | – | 21.3 ± 3.3
303.15 K, x2 = 0.7982 | – | 4.15 ± 0.74
303.15 K, x2 = 0.9503 | – | 1.14 ± 0.29
308.15 K, x1 = 0.0086 | – | 0.82 ± 0.1
308.15 K, x2 = 0.8014 | – | 3.51 ± 0.65
308.15 K, x2 = 0.8999 | – | 1.53 ± 0.35
308.15 K, x2 = 0.974 | – | 0.94 ± 0.11

CCCC[n+]1ccn(C)c1.O=S(=O)([O-])C(F)(F)F + CN(C)c1ccccc1
Conditions | viscosity [mPa·s]
308.15 K, 100 kPa, x2 = 0 | 52.2 ± 2.3

CCCC[N+]1(C)CCCC1.O=S(=O)([N-]S(=O)(=O)C(F)(F)F)C(F)(F)F + CO
101 kPa, frequency 0.001 MHz
Conditions | electrical conductivity [S/m]
293.15 K, x1 = 0.05 | 0.368 ± 0.057
293.15 K, x1 = 0.26 | 1.77 ± 0.039
293.15 K, x1 = 0.37 | 2.11 ± 0.03
298.15 K, x1 = 0.26 | 1.93 ± 0.04
303.15 K, x1 = 0.26 | 2.17 ± 0.05
303.15 K, x1 = 0.42 | 2.61 ± 0.03
308.15 K, x1 = 0.26 | 2.38 ± 0.049
308.15 K, x1 = 0.47 | 2.85 ± 0.035
308.15 K, x1 = 0.68 | 1.84 ± 0.051
313.15 K, x1 = 0.32 | 2.79 ± 0.048
313.15 K, x1 = 0.53 | 2.91 ± 0.05
313.15 K, x1 = 0.68 | 2.08 ± 0.057
313.15 K, x1 = 0.74 | 1.8 ± 0.052
313.15 K, x1 = 0.84 | 1.29 ± 0.068
313.15 K, x1 = 1 | 0.488 ± 0.005
318.15 K, x1 = 0.21 | 2.4 ± 0.1
318.15 K, x1 = 0.63 | 2.55 ± 0.064
318.15 K, x1 = 0.68 | 2.27 ± 0.056
318.15 K, x1 = 0.79 | 1.7 ± 0.058
318.15 K, x1 = 0.84 | 1.43 ± 0.07

101 kPa
Conditions | viscosity [mPa·s]
293.15 K, x1 = 0.05 | 1.02 ± 0.14
293.15 K, x1 = 0.26 | 8.31 ± 0.54
293.15 K, x1 = 0.37 | 12.95 ± 0.69
298.15 K, x1 = 0.26 | 7.2 ± 0.46
303.15 K, x1 = 0.26 | 6.29 ± 0.4
303.15 K, x1 = 0.42 | 11.11 ± 0.54
308.15 K, x1 = 0.26 | 5.53 ± 0.34
308.15 K, x1 = 0.47 | 10.87 ± 0.49
308.15 K, x1 = 0.68 | 16.54 ± 0.76
313.15 K, x1 = 0.32 | 6.15 ± 0.33
313.15 K, x1 = 0.53 | 10.55 ± 0.47
313.15 K, x1 = 0.68 | 14.3 ± 0.65
313.15 K, x1 = 0.74 | 16.1 ± 0.75
313.15 K, x1 = 0.84 | 21.3 ± 1.1
313.15 K, x1 = 1 | 35.7 ± 1.5
318.15 K, x1 = 0.21 | 3.3 ± 0.25
318.15 K, x1 = 0.63 | 11.22 ± 0.51
318.15 K, x1 = 0.68 | 12.47 ± 0.57
318.15 K, x1 = 0.79 | 15.95 ± 0.78
318.15 K, x1 = 0.84 | 18.39 ± 0.93
318.15 K, x1 = 0.95 | 25.2 ± 1.3

CCCC[n+]1ccn(C)c1.COP(=O)([O-])OC + CO
viscosity [mPa·s], 101 kPa
Conditions | 293.15 K | 308.15 K | 313.15 K | 318.15 K
x2 = 0.404 | – | 68.7 ± 1 | – | 44.37 ± 0.55
x2 = 0.8 | 7.184 ± 0.084 | – | 4.401 ± 0.052 | –

CCCC[n+]1ccn(C)c1.N[C@@H](CCC(=O)O)C(=O)[O-] + CO
101 kPa
Conditions | viscosity [mPa·s]
298.15 K, x2 = 0.2002 | 46.1 ± 4.3
298.15 K, x2 = 0.2995 | 34.4 ± 3.2
298.15 K, x2 = 0.7 | 4.97 ± 0.46
298.15 K, x2 = 0.9 | 1.24 ± 0.12
303.15 K, x2 = 0.6002 | 9.62 ± 0.9
308.15 K, x2 = 0.6002 | 8.63 ± 0.8
308.15 K, x2 = 0.8001 | 2.83 ± 0.26
313.15 K, x2 = 0.2002 | 25.6 ± 2.4
313.15 K, x2 = 0.7 | 4.55 ± 0.42

CCCC[n+]1ccn(C)c1.[Cl-] + CO
101 kPa, frequency 0 MHz
Conditions | electrical conductivity [S/m]
293.15 K, x1 = 0.007978 | 0.93 ± 0.24
303.15 K, x1 = 0.00449 | 0.66 ± 0.25
313.15 K, x1 = 0.002223 | 0.42 ± 0.32
313.15 K, x1 = 0.00354 | 0.6 ± 0.29
323.15 K, x1 = 0.00449 | 0.83 ± 0.31

101 kPa
Conditions | electrical conductivity [S/m] | viscosity [mPa·s]
293.15 K, x2 = 0.5001 | – | 65 ± 11
293.15 K, x2 = 0.5458 | – | 40.4 ± 6.2
298.15 K, x2 = 0.7015 | 2.19 ± 0.04 | 7.5 ± 1.2
303.15 K, x2 = 0.5594 | – | 27.1 ± 4.2
303.15 K, x2 = 0.7001 | – | 6.8 ± 1.1
308.15 K, x2 = 0.8999 | – | 1.19 ± 0.3
308.15 K, x2 = 0.95 | – | 0.79 ± 0.24
